Measurements from patent US8377974B2 (Millennium Pharmaceuticals, Inc., priority 2004, dated 2013).
pIC50: −log10 of the molar value.

Target: T1, human plasma protein factor Xa (Homo sapiens, UniProt P00742)
T1 construct: measure proteolytic activity of the enzyme (factor Xa); purchased Haematologic Technologies (Essex Junction, Vt.); host or cells: human plasma
Assay: Factor Xa IC50 determination: cleavage of paranitroanilide substrate S-2765 in 96-well plates
Type: biochemical
Settings: fXa 1 nM, S-2765 100 μM, Tris buffered saline pH 7.4, room temperature
In short: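 Human plasma factor Xa (1 nM) preincubated 5 min at room temperature with inhibitor (0.01 nM–10 μM final) in Tris-buffered saline pH 7.4 with 5 mM CaCl2, 0.1% BSA, 5% DMSO. S-2765 at 100 μM final; hydrolysis at 405 nm over 2 min. IC50 from 4-parameter fit of initial velocities.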

T1 sequence (P00742 235-488 limits assumed): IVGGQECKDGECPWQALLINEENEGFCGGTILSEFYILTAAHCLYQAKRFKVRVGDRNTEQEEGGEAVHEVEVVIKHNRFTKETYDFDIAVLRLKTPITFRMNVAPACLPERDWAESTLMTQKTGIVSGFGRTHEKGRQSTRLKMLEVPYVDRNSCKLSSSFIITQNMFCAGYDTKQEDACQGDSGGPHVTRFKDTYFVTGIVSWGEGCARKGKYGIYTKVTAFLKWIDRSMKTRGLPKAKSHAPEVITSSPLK
T1 sequence (P00742 41-179 partner limits assumed): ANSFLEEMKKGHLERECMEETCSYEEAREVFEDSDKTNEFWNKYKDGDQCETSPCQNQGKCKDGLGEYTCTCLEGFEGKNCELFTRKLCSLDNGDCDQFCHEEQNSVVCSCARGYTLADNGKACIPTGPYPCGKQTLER

Row | pIC50 | Compound
1 | ≥ 7.00 | COc1ccc(Oc2cc(C3=NCCN3C)ccc2-c2cc(CNC(=O)c3ccc(Cl)s3)on2)cc1 [Example 134, 5-Chloro-thiophene-2-carboxylic acid {3-[2-(4-methoxy-phenoxy)-4-(1-methyl-4,5-dihydro-1H-imidazol-2-yl)-phenyl]-isoxazol-5-ylmethyl}-amide]
2 | ≤ 6.30 | O=C(NCC1CC(c2cccc(-c3cccnc3)c2)=NO1)c1ccc(Cl)s1 (stereo not drawn) [Example 274, 5-Chloro-thiophene-2-carboxylic acid [3-(3-pyridin-3-yl-phenyl)-4,5-dihydro-isoxazol-5-ylmethyl]-amide]
3 | ≥ 7.00 | CCN(C)C(=N)c1ccc(C2=NOC(CNC(=O)c3ccc(Cl)s3)C2)cc1 (stereo not drawn) [Example 18, 5-Chloro-thiophene-2-carboxylic acid {3-[4-(N-ethyl-N-methyl-carbamimidoyl)-phenyl]-4,5-dihydro-isoxazol-5-ylmethyl}-amide]
4 | ≥ 7.00 | CN(C)C(=N)c1ccc(-n2cnc(CNC(=O)c3ccc(Cl)s3)c2)cc1 [Example 364, N-((1-(4-(N,N-Dimethylcarbamimidoyl)phenyl)-1H-imidazol-4-yl)methyl)-5-chlorothiophene-2-carboxamide]
5 | 6.30 to 7.00 | CN(C)C(=N)c1ccc(C2=NOC(CNC(=O)c3ccc(Cl)s3)C2)c(N(C)C)c1 (stereo not drawn) [Example 74, 5-Chloro-thiophene-2-carboxylic acid {3-[2-dimethylamino-4-(N,N-dimethyl-carbamimidoyl)-phenyl]-4,5-dihydro-isoxazol-5-ylmethyl}-amide]
6 | ≥ 7.00 | O=C(NCC1CC(c2ccc(N3CCN(C(=O)OCc4ccccc4)CC3=O)cc2)=NO1)c1ccc(Cl)s1 (stereo not drawn) [Example 242, 4-[4-(5-{[(5-Chloro-thiophene-2-carbonyl)-amino]-methyl}-4,5-dihydro-isoxazol-3-yl)-phenyl]-3-oxo-piperazine-1-carboxylic acid benzyl ester]
7 | ≥ 7.00 | CN(C)CCN(C)C(=N)c1ccc(-c2cc(CNC(=O)c3ccc(Cl)s3)on2)cc1 [Example 30, 5-Chloro-thiophene-2-carboxylic acid (3-{4-[N-(2-dimethylamino-ethyl)-N-methyl-carbamimidoyl]-phenyl}-isoxazol-5-ylmethyl)-amide]
8 | ≥ 7.00 | CN(C)C(=N)c1ccc(-c2cc(CNC(=O)c3ccc(Cl)s3)on2)c(N(C)C)c1 [Example 94, 5-Chloro-thiophene-2-carboxylic acid {3-[2-dimethylamino-4-(N,N-dimethyl-carbamimidoyl)-phenyl]-isoxazol-5-ylmethyl}-amide]
9 | ≥ 7.00 | CC1(CNC(=O)c2ccc(Cl)s2)CC(c2ccc(C(=N)N3CCCC3)cc2)=NO1 (stereo not drawn) [Example 59, 5-Chloro-thiophene-2-carboxylic acid {3-[4-(imino-pyrrolidin-1-yl-methyl)-phenyl]-5-methyl-4,5-dihydro-isoxazol-5-ylmethyl}-amide]
10 | 6.30 to 7.00 | CN1CCN=C1c1ccc(C2=NOC(CNC(=O)c3ccc(Cl)s3)C2)c(N(C)C)c1 (stereo not drawn) [Example 75, 5-Chloro-thiophene-2-carboxylic acid {3-[2-dimethylamino-4-(1-methyl-4,5-dihydro-1H-imidazol-2-yl)-phenyl]-4,5-dihydro-isoxazol-5-ylmethyl}-amide]
11 | ≥ 7.00 | O=C(NCc1cn(-c2ccc(N3CCCCC3=O)cc2)nn1)c1ccc(Cl)s1 [Example 300, 5-Chloro-N-((1-(4-(2-oxopiperidin-1-yl)phenyl)-1H-1,2,3-triazol-4-yl)methyl)thiophene-2-carboxamide]
12 | ≥ 7.00 | N=C(c1ccc(-n2cc(CNC(=O)c3ccc(Cl)s3)nn2)cc1)N1CCC1 [Example 317, N-((1-(4-(Azetidin-1-yl(imino)methyl)phenyl)-1H-1,2,3-triazol-4-yl)methyl)-5-chlorothiophene-2-carboxamide]
13 | ≤ 6.30 | COC[C@H]1CCCN1c1ccc(C2=NOC(CNC(=O)c3ccc(Cl)s3)C2)cc1 (stereo partly drawn) [Example 236, 5-Chloro-thiophene-2-carboxylic acid {3-[4-(2-methoxymethyl-pyrrolidin-1-yl)-phenyl]-4,5-dihydro-isoxazol-5-ylmethyl}-amide]
14 | ≤ 6.30 | CSc1ccccc1-c1ccc(C2=NOC(CNC(=O)c3ccc(Cl)s3)C2)cc1 (stereo not drawn) [Example 185, 5-Chloro-thiophene-2-carboxylic acid [3-(2′-methylsulfanyl-biphenyl-4-yl)-4,5-dihydro-isoxazol-5-ylmethyl]-amide]
15 | ≥ 7.00 | N=C(c1ccc(-n2cc(CNC(=O)c3ccc(Cl)s3)cn2)cc1)N1CCCCC1 [Example 329, 5-Chloro-N-((1-(4-(imino(piperidin-1-yl)methyl)phenyl)-1H-pyrazol-4-yl)methyl)thiophene-2-carboxamide]
16 | ≥ 7.00 | CCN(C)C(=N)c1ccc(-c2cc(CNC(=O)c3ccc(Cl)s3)on2)cc1 [Example 28, 5-Chloro-thiophene-2-carboxylic acid {3-[4-(N-ethyl-N-methyl-carbamimidoyl)-phenyl]-isoxazol-5-ylmethyl}-amide]
17 | ≤ 6.30 | CNC(=N)c1ccc(-c2cc(CNC(=O)c3ccc(Cl)s3)on2)cc1 [Example 34, 5-Chloro-thiophene-2-carboxylic acid {3-[4-(N-methylcarbamimidoyl)-phenyl]-isoxazol-5-ylmethyl}-amide]

Row | pIC50 | Compound
18 | ≥ 7.00 | O=C(NCC1CC(c2ccc(-n3cccc(Cl)c3=O)cc2)=NO1)c1ccc(Cl)s1 (stereo not drawn) [Example 283, 5-Chloro-N-((3-(4-(3-chloro-2-oxopyridin-1(2H)-yl)phenyl)-4,5-dihydroisoxazol-5-yl)methyl)thiophene-2-carboxamide]
19 | ≥ 7.00 | CN(C)C(=N)c1ccc(C2=NOC(CNC(=O)c3ccc(Cl)s3)C2)c(N2CCOCC2)c1 (stereo not drawn) [Example 82, 5-Chloro-thiophene-2-carboxylic acid {3-[4-(N,N-dimethyl-carbamimidoyl)-2-morpholin-4-yl-phenyl]-4,5-dihydro-isoxazol-5-ylmethyl}-amide]
20 | ≥ 7.00 | O=C(NCc1nc(-c2ccc(-n3ccccc3=O)cc2)no1)c1ccc(Cl)s1 [Example 311, 5-Chloro-N-((3-(4-(2-oxopyridin-1(2H)-yl)phenyl)-1,2,4-oxadiazol-5-yl)methyl)thiophene-2-carboxamide]
21 | ≥ 7.00 | O=C(NCc1cn(-c2ccc(-n3ccccc3=O)cc2)nn1)c1ccc(Cl)s1 [Example 290, 5-Chloro-N-((1-(4-(2-oxopyridin-1(2H)-yl)phenyl)-1H-1,2,3-triazol-4-yl)methyl)thiophene-2-carboxamide]
22 | ≥ 7.00 | N=C(c1ccc(-n2cc(CNC(=O)c3ccc(Cl)s3)nn2)c(F)c1)N1CCCCC1 [Example 323, 5-Chloro-N-((1-(2-fluoro-4-(imino(piperidin-1-yl)methyl)phenyl)-1H-1,2,3-triazol-4-yl)methyl)thiophene-2-carboxamide]
23 | ≥ 7.00 | O=C(NCc1cc(-c2ccc(-c3ccncc3)cc2)no1)c1ccc(Cl)s1 [Example 193, 5-Chloro-thiophene-2-carboxylic acid [3-(4-pyridin-4-yl-phenyl)-isoxazol-5-ylmethyl]-amide]
24 | 6.30 to 7.00 | COc1ccccc1-c1ccc(C2=NOC(CNC(=O)c3ccc(Cl)s3)C2)cc1 (stereo not drawn) [Example 188, 5-Chloro-thiophene-2-carboxylic acid [3-(2′-methoxy-biphenyl-4-yl)-4,5-dihydro-isoxazol-5-ylmethyl]-amide]
25 | 6.30 to 7.00 | Cn1ccc(Nc2ccc(C3=NOC(CNC(=O)c4ccc(Cl)s4)C3)cc2)n1 (stereo not drawn) [Example 233, 5-Chloro-thiophene-2-carboxylic acid {3-[4-(1-methyl-1H-pyrazol-3-ylamino)-phenyl]-4,5-dihydro-isoxazol-5-ylmethyl}-amide]
26 | 6.30 to 7.00 | N=C(c1ccc(C2=NOC(CNC(=O)c3ccc(Cl)s3)C2)cc1)N1CCCCC1 (stereo not drawn) [Example 11, 5-Chloro-thiophene-2-carboxylic acid {3-[4-(imino-piperidin-1-yl-methyl)-phenyl]-4,5-dihydro-isoxazol-5-ylmethyl}-amide]
27 | ≥ 7.00 | CC(C)Oc1cc(C(=N)N(C)C)ccc1-c1cc(CNC(=O)c2ccc(Cl)s2)on1 [Example 126, 5-Chloro-thiophene-2-carboxylic acid {3-[4-(N,N-dimethyl-carbamimidoyl)-2-isopropoxy-phenyl]-isoxazol-5-ylmethyl}-amide]
28 | ≥ 7.00 | COc1ccc(-c2ccc(-c3cc(CNC(=O)c4ccc(Cl)s4)on3)cc2)c(CN2CCCC2)c1 [Example 218, 5-Chloro-thiophene-2-carboxylic acid [3-(4′-methoxy-2′-pyrrolidin-1-ylmethyl-biphenyl-4-yl)-isoxazol-5-ylmethyl]-amide]
29 | ≥ 7.00 | CN1CCN=C1c1ccc(-c2cc(CNC(=O)c3ccc(Cl)s3)on2)c(N(C)C)c1 [Example 95, 5-Chloro-thiophene-2-carboxylic acid {3-[2-dimethylamino-4-(1-methyl-4,5-dihydro-1H-imidazol-2-yl)-phenyl]-isoxazol-5-ylmethyl}-amide]
30 | ≥ 7.00 | CN(C)Cc1ccccc1-c1ccc(-c2cc(CNC(=O)c3ccc(Cl)s3)on2)cc1 [Example 209, 5-Chloro-thiophene-2-carboxylic acid [3-(2′-dimethylaminomethyl-biphenyl-4-yl)-isoxazol-5-ylmethyl]-amide]
31 | ≤ 6.30 | CN(Cc1cc(-c2ccc(C3=NCCN3C)cc2)no1)C(=O)c1ccc(Cl)s1 [Example 36, 5-Chloro-thiophene-2-carboxylic acid methyl-{3-[4-(1-methyl-4,5-dihydro-1H-imidazol-2-yl)-phenyl]-isoxazol-5-ylmethyl}-amide]
32 | ≤ 6.30 | O=C(NCc1cc(-c2ccc(NCc3ccccc3)cc2)no1)c1ccc(Cl)s1 [Example 258, 5-Chloro-thiophene-2-carboxylic acid [3-(4-benzylamino-phenyl)-isoxazol-5-ylmethyl]-amide]
33 | ≤ 6.30 | CN(Cc1cc(-c2ccc(C(=N)N3CCC3)cc2)no1)C(=O)c1ccc(Cl)s1 [Example 40, 5-Chloro-thiophene-2-carboxylic acid {3-[4-(azetidin-1-yl-imino-methyl)-phenyl]-isoxazol-5-ylmethyl}-methyl-amide]
